The test system of one data set is IL-6. Kind of data set: In-vitro cytokine inhibition in LPS-treated THP-1 cells (ELISA), IL-6. The format is cell-based, human. Conditions: LPS 1 μg/ml, 24 h, sample 12.5 μg/mL. On the procedure:
(§1) For the in vitro analysis of pro-inflammatory cytokines (IL-6 and TNF-α), human leukemia THP-1 cells were seeded in a 24-well plate at a density of 4×10^5 cells/ml of RPMI medium per well. THP-1 cells were then treated with phorbol 12-myristate 13-acetate (20 ng/ml) for differentiation into macrophages for 18 h followed by a rest period of 48 h. Cells were further co-treated with test samples and 1 μg/ml of lipopolysaccharide (LPS) in a serum-free medium. Culture supernatant was harvested after 24 h for analysis of different cytokines by using OptEIA ELISA Kits from BD Biosciences. Total protein content for all the samples was calculated by using Bradford reagent from Bio-Rad Laboratories. All the samples were normalized by dividing cytokine concentration with total quantity of protein. Bergenin was reported earlier as an inhibitor of TNF-alpha and IL-6 and was therefore was used as a positive control in this assay.
(In an ELISA, binding on a coated surface is turned into a signal by an enzyme label.)

The conditions of data set [1]: rats; cited from earlier work.
For data set [2] the following is noted: cited from earlier work.
Data set [3] in a line: pH dependent stability of bergenin (HPLC, 24 h). The settings on record: at pH 7.4 and above. The format is physicochemical. On the procedure: The stability study was performed in pH 1.2 buffer, pH 4.0 buffer, phosphate buffer pH 6.8, phosphate buffered saline pH 7.4, SGF (pH 1.2), SIF (pH 6.8) and plasma. The % of bergenin hydrolyzed after 24 h was determined by HPLC analysis. The HPLC analysis was carried out using the method as described in example 2.

A further data set can be described thus: in vivo. Also noted: species or system SD rats. Conditions: rat. On the procedure: The study was performed in male SD rats. To determine oral bioavailability of bergenin, the bergenin was administered at 5 mg/kg by IV route and at 50 mg/kg by oral route. For comparative oral pharmacokinetic study of plain extract (IIIM-160-A002) and GRSR formulation (filled in 9el capsules), the dose equivalent to 6.2 mg/kg of bergenin was administered in SD rats in both these groups. Blood samples were collected (n=3/time point) at 0.083 (IV only), 0.25, 0.5, 1, 2, 4, 8 and 24 h, post-dose. At each time point about 200 μL of blood was collected by jugular vein into a labeled microfuge tube containing 200 mM K2EDTA solution (20 μL per mL of blood) and equivalent volume of heparinized saline was replaced following sample collection. The blood samples were processed to obtain the plasma samples within 30 min of scheduled sampling time. All plasma samples were stored below −60° C. until bioanalysis. The plasma samples were analyzed for bergenin content using a fit-for purpose LC-MS/MS method with a lower limit of quantification (LLOQ) of 9.95 ng/mL. The pharmacokinetic parameters of bergenin were calculated using the non-compartmental analysis tool of validated Phoenix® WinNonlin® software (version 6.3).

For another data set, the system named is TNF-α. Kind of data set: In-vitro cytokine inhibition in LPS-treated THP-1 cells (ELISA), TNF-α. The format is cell-based, human. Conditions: LPS 1 μg/ml, 24 h, sample 12.5 μg/mL. On the procedure:
as §1

Broadly, the inhibition is the share of the control response that was lost under treatment. A higher inhibition goes with a strong effect. In general, bioavailability refers to the share of a dose that reaches the circulation, judged against a reference dose that is usually intravenous. Read a low bioavailability as poor availability. In general, AUC(0-t) refers to the area under the concentration-time curve up to a stated or last time point. Lower therefore signals low exposure. A word on the clearance: it is the volume of plasma or blood freed of the substance per unit of time. A lower clearance goes with a low capacity for elimination. A word on the half-life: it is the time needed for the level to fall by half in the phase considered. Low values mean fast loss, high ones slow loss. As a reminder, the Cmax is the peak of the concentration-time curve.

Where two headings read alike, the source gives them in different places.

`COc1c(O)cc2c(c1O)[C@@H]1O[C@H](CO)[C@@H](O)[C@H](O)[C@H]1OC2=O` [Bergenin, bergenin] showed an inhibition at 12.5 µg/mL in the data set on IL-6 (Homo sapiens) of 98%. In addition, in the data set on IL-6, the “IL-6 (pg/mL)/total protein (μg)” value is listed as 0.08 ± 0.107 (pg/mL)/total protein (μg). Also, in data set [1], the “plasma half-life (t1/2)” value is 1 to 2 h. In addition, in data set [2] (pH 1.2), the “stability at acidic pH of stomach” value is “stable”. Besides, the “stability at intestinal pH” value in data set [2] (pH 6.8 and above) is listed as “gets degraded”. Moreover, the degradation half life in data set [2] (pH 7) was 14.4 h. In addition, the degradation half life in data set [2] (pH 8) was 2.9 h. For the same molecule, the “hydrolysis of bergenin after 24 h” value in data set [3] is “gets hydrolyzed to its lactone ring opened product”. Also, in the data set “in vivo” (male, SD), the bioavailability came out at 3%. Also, in “in vivo” (male, SD, iv, 5 mg/kg), the area under the curve AUC(0-t) worked out at 874 ng·h/mL, the clearance is 95.5 mL/min/kg, the half-life is 0.318 h and the “volume of distribution relative to normal total body water content (0.7 L/kg in rats)” value is reported as around 1.50 fold. In “in vivo” (male, SD, po, 50 mg/kg), the AUC(0-t) was found to be 269 ng·h/mL, the maximum concentration (Cmax) was found to be 170 ng/mL, the half-life is 1.74 h and the “median time to reach the maximum plasma concentration” value is listed as 0.25 h. In the data set “in vivo” (iv, 5 mg/kg), the “clearance relative to normal hepatic blood flow (55 mL/min/kg in rats)” value is recorded as around 1.74 folds. Also, in the data set on TNF-α (Homo sapiens), at 12.5 µg/mL the inhibition was 61%. Also, the “TNF-α (pg/mL)/total protein (μg)” value with TNF-α is listed as 2.40 ± 0.25 (pg/mL)/total protein (μg).
